pIC50, pKd: −log10 of the molar value.

A word on the pIC50: it is the negative decadic logarithm of the IC50, by convention in mol/L. The pKd is the Kd on a negative log10 scale, so that one unit is a factor of ten. Low values mean a large Kd, high ones a small Kd.

Sequence of TYK2 (JH2 domain) (P29597 589-875): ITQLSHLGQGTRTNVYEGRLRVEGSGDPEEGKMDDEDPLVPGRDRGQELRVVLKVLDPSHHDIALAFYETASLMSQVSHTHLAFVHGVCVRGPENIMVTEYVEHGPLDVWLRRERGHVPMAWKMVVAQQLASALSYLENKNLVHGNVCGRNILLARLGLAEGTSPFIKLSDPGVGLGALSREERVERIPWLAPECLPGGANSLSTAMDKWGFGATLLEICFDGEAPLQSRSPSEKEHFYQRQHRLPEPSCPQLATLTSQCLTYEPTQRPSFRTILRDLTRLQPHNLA

One experiment deals with INFα induced pSTAT5 in human PBMC. The experiment in a line: INFα induced pSTAT5 in human PBMC. Conditions: Homo sapiens, PBMC, read-out: p-STAT5 IC50. It is filed as cell-based.
Experimental: Cells were seeded in a round bottom 96-well plate at the concentration of 200,000 cells/well. A 10-point dilution series of test compound (top dose 10 uM, 1:5 dilution) was added to the well using the liquid dispenser (Tecan D300e) and incubated for 1 hour at 37 C. Then human INFα recombinant protein (R&D Systems) was added to the well at the final concentration of 5000 units/ml and incubated for 15 minutes at 37 C. Cell lysates were prepared and analyzed by Phospho STAT3 (Tyr705) cellular kit (Cisbio) or Phospho STAT5 (Tyr693) Kit (Meso Scale Discovery) following manufacturer's protocol.
For calculation of the inhibition rate, the relative pSTAT signal of each well=pSTAT signal of each well−the average pSTAT signal of baseline. The inhibition %=(the average pSTAT signal of INFα treatment wells−the relative of pSTAT signal in each compound containing well)/the average pSTAT signal of INFα treatment wells*100%
The curve was plotted as the inhibition % (y-axis) vs. compounds concentration (x-axis) and was fitted with log(inhibitor) vs. normalized response—Variable slope by GraphPad Prism7.0.
With `[2H]C([2H])([2H])Oc1c(Nc2cc(NC(=O)C3CC3)ncc2C(=O)C2CC2)cccc1-c1ncn(C([2H])([2H])[2H])n1` [Example 127], the negative logarithm of the IC50 (pIC50) is above 7.00.

In the case of `COc1c(Nc2cc(N[S+]([O-])C(C)(C)C)ncc2C(=O)C2CC2)cccc1-c1ncn(C)n1` (centres unmarked) [Example 128], the pIC50 is 5.00 to 6.00.

The experiment is the same for the next values; noted with them: human PBMC, INFα 5000 units/ml; read-out: p-STAT5 IC50.
`COc1c(Nc2cc(Nc3cc(C)ccn3)ncc2C(=O)C2CC2)cccc1-c1ncn(C)n1` [Example 107]: the pIC50 is above 7.00.

Take `COc1c(Nc2cc(Nc3cccnn3)ncc2C(=O)C2CC2)cccc1-c1ncn(C)n1` [Example 109]: the pIC50 was above 7.00.

For the compound `COc1c(Nc2cc(Nc3ccc(N4CCOCC4)cn3)ncc2C(=O)C2CC2)cccc1-c1ncn(C)n1` [Example 110], the pIC50 was above 7.00.

On to `COc1c(Nc2cc(Nc3cc(C)nc(C)n3)ncc2C(=O)C2CC2)cccc1-c1ncn(C)n1` [Example 111], for which the pIC50 is above 7.00.

Turning to `COc1c(Nc2cc(Nc3cccc(C)n3)ncc2C(=O)C2CC2)cccc1-c1ncn(C)n1` [Example 112], the pIC50 is above 7.00.

For the compound `COc1c(Nc2cc(Nc3ccc(C)nn3)ncc2C(=O)C2CC2)cccc1-c1ncn(C)n1` [Example 113], the negative logarithm of the IC50 (pIC50) was above 7.00.

On to `CCC(=O)c1cnc(NC(=O)N2CCC2)cc1Nc1cccc(-c2ncn(C)n2)c1OC` [Example 114], for which the pIC50 was above 7.00.

With `CCC(=O)c1cnc(N2CCN(C(C)C)C2=O)cc1Nc1cccc(-c2ncn(C)n2)c1OC` [Example 115], the negative-log IC50 (pIC50) was above 7.00.

On to `CCC(=O)c1cnc(NC(=O)C2CC2)cc1Nc1cccc(-c2ncn(C)n2)c1OC` [Example 116], for which the negative-log IC50 (pIC50) is above 7.00.

On to `COc1c(Nc2cc(Nc3ncccc3F)ncc2C(=O)C2CC2)cccc1-c1ncn(C)n1` [Example 119], for which the pIC50 is above 7.00.

On to `COc1c(Nc2cc(Nc3ccc(C(C)(C)O)c(F)n3)ncc2C(=O)C2CC2)cccc1-c1ncn(C)n1` [Example 120], for which the pIC50 is above 7.00.

For the compound `COc1c(Nc2cc(NC(=O)NC(C)C)ncc2C(=O)C2CC2)cccc1-c1ncn(C)n1` [Example 121], the negative-log IC50 (pIC50) is above 7.00.

Turning to `COc1c(Nc2cc(Nc3ccc(C(C)(C)O)cn3)ncc2C(=O)C2CC2)cccc1-c1ncn(C)n1` [Example 122], the negative-log IC50 (pIC50) was above 7.00.

Consider `COc1c(Nc2cc(Nc3ccc(OC4CCOC4)cn3)ncc2C(=O)C2CC2)cccc1-c1ncn(C)n1` (centres unmarked) [Example 124], for which the pIC50 was above 7.00.

With `CS(=O)(=O)c1cccnc1Nc1cc(Nc2cccnn2)ncc1C(=O)C1CC1` [Example 125], the pIC50 is above 7.00.

With `CNC(=O)c1nnc(NC(=O)N2CC(C)C2)cc1Nc1cccc(-c2ncn(C)n2)c1OC` [Example 129], the pIC50 is above 7.00.

Regarding `COc1c(Nc2cc(NC(=O)C3CC3F)ncc2C(=O)C2CC2)cccc1-c1ncn(C)n1` (centres unmarked) [Example 130], the negative logarithm of the IC50 (pIC50) was above 7.00.

As to `COc1c(-c2ncn(C)n2)ccnc1Nc1cc(Nc2ccc(C(C)(C)O)c(F)n2)ncc1C(=O)C1CC1` [Example 131], the pIC50 was above 7.00.

Turning to `COc1c(Nc2cc(Nc3cc(C)n(C)n3)ncc2C(=O)C2CC2)cccc1-c1ncn(C)n1` [Example 132], the pIC50 was above 7.00.

For `COc1c(Nc2cc(NC(=O)N3CC(C)(C)C3)ncc2C(=O)C2CC2)cccc1-c1ncn(C)n1` [Example 133], the negative logarithm of the IC50 (pIC50) was above 7.00.

With `COc1c(Nc2cc(Nc3nccc(=O)[nH]3)ncc2C(=O)C2CC2)cccc1-c1ncn(C)n1` [Example 135], the pIC50 was 5.00 to 6.00.

For `COc1c(Nc2cc(Nc3cc(C#N)ccn3)ncc2C(=O)C2CC2)cccc1-c1ncn(C)n1` [Example 136], the pIC50 is above 7.00.

As to `CS(=O)(=O)c1cccnc1Nc1cc(Nc2ccccn2)ncc1C(=O)C1CC1` [Example 137], the pIC50 is above 7.00.

On to `COc1c(Nc2cc(Nc3ccn(C)n3)ncc2C(=O)C2CC2)cccc1-c1ncn(C)n1` [Example 138], for which the pIC50 is above 7.00.

With `COc1c(Nc2cc(Nc3ccc(C#N)cn3)ncc2C(=O)C2CC2)cccc1-c1ncn(C)n1` [Example 139], the pIC50 was above 7.00.

Take `COc1c(Nc2cc(Nc3cccc(C#N)n3)ncc2C(=O)C2CC2)cccc1-c1ncn(C)n1` [Example 140]: the pIC50 is above 7.00.

Consider `COc1c(-c2ncn(C)n2)ccnc1Nc1cc(Nc2ccccn2)ncc1C(=O)C1CC1` [Example 141], for which the pIC50 was above 7.00.

In the case of `[2H]C([2H])([2H])NC(=O)c1nnc(NC(=O)N2CC(C)(F)C2)cc1Nc1cccc(-c2ncn(C)n2)c1OC` [Example 142], the pIC50 was above 7.00.

Take `COc1c(Nc2cc(Nc3ccnc(C#N)n3)ncc2C(=O)C2CC2)cccc1-c1ncn(C)n1` [Example 143]: the negative logarithm of the IC50 (pIC50) was above 7.00.

Turning to `[2H]C([2H])([2H])NC(=O)c1nnc(NC(=O)N2CC(C#N)C2)cc1Nc1cccc(-c2ncn(C)n2)c1OC` [Example 144], the pIC50 is above 7.00.

On to `[2H]C([2H])([2H])NC(=O)c1cnc(NC(=O)N2CC(C)(C)C2)cc1Nc1cccc(-c2ncn(C)n2)c1OC` [Example 148], for which the negative logarithm of the IC50 (pIC50) was above 7.00.

Regarding `COc1c(Nc2cc(Nc3ccc(N4CCOCC4=O)cn3)ncc2C(=O)C2CC2)cccc1-c1ncn(C)n1` [Example 149], the negative-log IC50 (pIC50) was above 7.00.

For the compound `[2H]C([2H])([2H])NC(=O)c1nnc(NC(=O)N2CC3(CC3)C2)cc1Nc1cccc(-c2ncn(C)n2)c1OC` [Example 150], the negative logarithm of the IC50 (pIC50) is above 7.00.

As for `[2H]C([2H])([2H])NC(=O)c1nnc(NC(=O)N2CC(F)(C#N)C2)cc1Nc1cccc(-c2ncn(C)n2)c1OC` [Example 151], the negative logarithm of the IC50 (pIC50) was above 7.00.

`COc1c(Nc2cc(Nc3cnc(C)cn3)ncc2C(=O)C2CC2)cccc1-c1ncn(C)n1` [Example 152]: the pIC50 was above 7.00.

For `COc1c(Nc2cc(Nc3ccnc(C)n3)ncc2C(=O)C2CC2)cccc1-c1ncn(C)n1` [Example 153], the negative-log IC50 (pIC50) is above 7.00.

Consider `COc1c(Nc2cc(Nc3cc(C)ncn3)ncc2C(=O)C2CC2)cccc1-c1ncn(C)n1` [Example 154], for which the pIC50 was above 7.00.

Turning to `COc1c(-c2ncn(C)n2)ccnc1Nc1cc(Nc2ccc(C)nn2)ncc1C(=O)C1CC1` [Example 155], the pIC50 is above 7.00.

Consider `[2H]C([2H])([2H])NC(=O)c1nnc(NC(=O)N2CC(C)(C)C2)cc1Nc1cccc(-c2ncn(C([2H])([2H])[2H])n2)c1OC` [Example 156], for which the negative-log IC50 (pIC50) is above 7.00.

With `[2H]C([2H])([2H])NC(=O)c1nnc(NC(=O)N2CC(C(F)F)C2)cc1Nc1cccc(-c2ncn(C)n2)c1OC` [Example 157], the pIC50 is above 7.00.

Regarding `[2H]C([2H])([2H])NC(=O)c1nnc(NC(=O)N2CC(OC)C2)cc1Nc1cccc(-c2ncn(C)n2)c1OC` [Example 158], the negative logarithm of the IC50 (pIC50) is above 7.00.

Another experiment concerns the target TYK2 (JH2 domain) (Homo sapiens (Human), UniProt P29597). The experiment in a line: TYK2 JH2 domain binding assay (DiscoverX KINOMEscan). The conditions noted are these: 11-point 3-fold dilution, duplicate.
Experimental: The assay is performed by combining three components: DNA-tagged kinase; immobilized ligand; and a test compound. The ability of the test compound to compete with the immobilized ligand is measured via quantitative PCR of the DNA tag.
The liganded beads were blocked with excess biotin and washed with blocking buffer (SeaBlock (Pierce), 1% BSA, 0.05% Tween 20, 1 mM DTT) to remove unbound ligand and to reduce non-specific binding. […] Test compounds were prepared as 111× stocks in 100% DMSO. All test compounds were shipped to DiscoverX in DMSO with concentration of 10 mM. Kds were determined using an 11-point 3-fold compound dilution series with three DMSO control points. Each compound was tested in duplicate. […] The compounds were then diluted directly into the assays such that the final concentration of DMSO was 0.9%. All reactions performed in polypropylene 384-well plate. Each was a final volume of 0.02 ml. […] The kinase concentration in the eluates was measured by qPCR.
The amount of kinase measured by qPCR (Signal; y-axis) is plotted against the corresponding compound concentration in nM in log 10 scale (x-axis). Binding constants (Kds) were calculated with a standard dose-response curve using the Hill equation:
The Hill Slope was set to −1.
Curves were fitted using anon-linear least square fit with the Levenberg-Marquardt algorithm.
The compound `COc1c(Nc2cc(N3CCN(C(C)C)C3=O)ncc2C(=O)C2CC2)cccc1-c1ncn(C)n1` [Example 35] had a pKd of at least 9.00.

`[2H]C([2H])([2H])NC(=O)c1nnc(/C=C/C2CC2)cc1Nc1cccc(-c2ncn(C)n2)c1OC` [Example 45] had a negative-log Kd (pKd) of at least 9.00.

For `COc1c(Nc2cc(Cl)nnc2C(=O)C(F)F)cccc1-c1ncn(C)n1` [Example 46], the negative-log Kd (pKd) was at least 9.00.

Turning to `[2H]C([2H])([2H])NC(=O)c1nnc(N2CC3(COC3)C2)cc1Nc1cccc(-c2ncn(C)n2)c1OC` [Example 53], the pKd was at least 9.00.

`[2H]C([2H])([2H])NC(=O)c1nnc(N2CC(F)(F)C2)cc1Nc1cccc(-c2ncn(C)n2)c1OC` [Example 58] gave a negative logarithm of the Kd (pKd) of 8.00 to 8.30.

For `[2H]C([2H])([2H])NC(=O)c1nnc(-n2cccn2)cc1Nc1cccc(-c2ncn(C)n2)c1OC` [Example 65], the pKd is 8.00 to 8.30.

Regarding `[2H]C([2H])([2H])NC(=O)c1nnc(-n2ccc(C)n2)cc1Nc1cccc(-c2ncn(C)n2)c1OC` [Example 66], the pKd was 8.30 to 9.00.

Compound `[2H]C([2H])([2H])NC(=O)c1nnc(N2CCCC2)cc1Nc1cccc(-c2ncn(C)n2)c1OC` [Example 70] had a pKd of 8.30 to 9.00.

Regarding `[2H]C([2H])([2H])NC(=O)c1nnc(C=C(C)C)cc1Nc1cccc(-c2ncn(C)n2)c1OC` [Example 73], the pKd is 8.00 to 8.30.

Turning to `[2H]C([2H])([2H])NC(=O)c1nnc(N2CCC3(CCNCC3)C2=O)cc1Nc1cccc(-c2ncn(C)n2)c1OC` [Example 75], the pKd was at least 9.00.

With `[2H]C([2H])([2H])NC(=O)c1nnc(N2C[C@H](O)CC2=O)cc1Nc1cccc(-c2ncn(C)n2)c1OC` [Example 76], the pKd was 8.30 to 9.00.

As to `[2H]C([2H])([2H])NC(=O)c1nnc(N2CCN(C3CCC3O)C2=O)cc1Nc1cccc(-c2ncn(C)n2)c1OC` (centres unmarked) [Example 81], the pKd is at least 9.00.

Consider `[2H]C([2H])([2H])NC(=O)c1nnc(N2CCN(C(C)C(F)(F)F)C2=O)cc1Nc1cccc(-c2ncn(C)n2)c1OC` (centres unmarked) [Example 83], for which the pKd was at least 9.00.

Compound `[2H]C([2H])([2H])NC(=O)c1nnc(N2CCN(CC(C)(C)O)C2=O)cc1Nc1cccc(-c2ncn(C)n2)c1OC` [Example 90] showed a pKd of at least 9.00.

Consider `[2H]C([2H])([2H])NC(=O)c1nnc(N2CCN(C(CO)C(C)C)C2=O)cc1Nc1cccc(-c2ncn(C)n2)c1OC` (centres unmarked) [Example 92], for which the pKd was at least 9.00.

Compound `[2H]C([2H])([2H])NC(=O)c1nnc(N2CCN(CCN(CC)CC)C2=O)cc1Nc1cccc(-c2ncn(C)n2)c1OC` [Example 93] gave a negative-log Kd (pKd) of at least 9.00.

Compound `[2H]C([2H])([2H])NC(=O)c1nnc(N2CCN(C(C)COC)C2=O)cc1Nc1cccc(-c2ncn(C)n2)c1OC` (centres unmarked) [Example 97] had a pKd of at least 9.00.

In the case of `[2H]C([2H])([2H])NC(=O)c1nnc(N2CCN(C3CC(C)(C)C3)C2=O)cc1Nc1cccc(-c2ncn(C)n2)c1OC` [Example 101], the pKd was at least 9.00.

On to `[2H]C([2H])([2H])NC(=O)c1nnc(N2CCN(C(CC)CC)C2=O)cc1Nc1cccc(-c2ncn(C)n2)c1OC` [Example 102], for which the negative logarithm of the Kd (pKd) was at least 9.00.

`Cn1cnc(-c2cccc3c2OCCOCCOc2nnccc2N3)n1` [Example 104] gave a pKd of 8.00 to 8.30.

With `COc1c(Nc2cc(N[S@+]([O-])C(C)(C)C)ncc2C(=O)C2CC2)cccc1-c1ncn(C)n1` [Example 118], the negative-log Kd (pKd) was below 8.00.

`COc1c(Nc2cc(N[S@@+]([O-])C(C)(C)C)ncc2C(=O)C2CC2)cccc1-c1ncn(C)n1` [Example 123] gave a pKd below 8.00.

(Values after patent US11053219B2, “Substituted pyridines as TYK2 inhibitors” (FronThera U.S. Pharmaceuticals LLC, priority 2018, dated 2021).)
